Converted amounts (≈) assume the structure as drawn.
Assays:
[1] = biological target: MDM2 (Homo sapiens, UniProt Q00987); assay: HTRF test: inhibition of MDM2-p53 protein binding
[2] = test system: Blood cancer cells RS4; 11; assay: CellTiter Glo test: growth inhibition of cells; format: cell-based; details: Homo sapiens, 11 cells, 72 h, cell viability
[3] = biological target: T1, MDMX (Homo sapiens, UniProt O15151); assay: HTRF test: inhibition of MDMX-p53 protein binding
T1 sequence (O15151 2-134): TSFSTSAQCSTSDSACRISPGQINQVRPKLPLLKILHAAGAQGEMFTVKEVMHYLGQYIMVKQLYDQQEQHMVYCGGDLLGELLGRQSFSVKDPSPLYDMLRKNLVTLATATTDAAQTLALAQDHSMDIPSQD

[4] = Solubility test; format: physicochemical; details: aqueous buffer, kinetic from dmso stock, phosphate buffer pH 7.4, 25° C.
Protocol: Test Example 2: Solubility Test
A test substance and a control drug progesterone were prepared with DMSO into a 10 mM stock solution
30 μL 10 mM stock solution prepared from the test substance and the control drug progesterone was taken and added into bottles in corresponding positions of 96-well sample plate in a specified order. Then, 970 μL of phosphate buffer with pH 7.4 was added into corresponding bottles of the sample plate. The experiments were two parallel experiments. A stirring rod was added into each bottle, and each bottle was covered with a polytetrafluoroethylene/silicon organic resin bottle plug. Then, a sample tray was placed in Eppendorf Thermomixer Comfort and vibrated at a rotating speed of 1100/min at 25° C. for 2 h. 2 h later, the bottle plug was removed, the stirring rod was taken away with a large magnet, and then samples were transferred to a filter plate from the sample plate. A vacuum pump generated a negative pressure to filter the samples. […]
A sample injection plate was placed in a sample injection tray of an automatic sample injection, and samples were evaluated through liquid analysis. […]
Analysis and quantification of the filter of the samples were completed by qualitatively and quantitatively analyzing the peak of a standard product with known concentration through liquid chromatography-mass spectrometry. […]

Chain of MDM2 (Q00987 2-138): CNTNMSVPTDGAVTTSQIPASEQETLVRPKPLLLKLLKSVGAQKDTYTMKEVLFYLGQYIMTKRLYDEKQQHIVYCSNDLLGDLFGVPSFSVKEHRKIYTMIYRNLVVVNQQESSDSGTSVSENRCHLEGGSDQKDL

Row | SMILES | IC50 [1] | IC50 [2] | IC50 [3] | solubility at 2 h [4]
1 | N#Cc1ccc(C(CO)N2C(=O)N/C(=C\c3c[nH]c4cc(Cl)ccc34)C2=O)cc1 (stereo not shown) [Compound 38, (Z)-4-(1-(4-((6-chloro-1H-indol-3-yl)methylene)-2,5-dioxoimidazolidin-1-yl)-2-hydroxyethyl)benzonitrile] | < 0.01 µM | ≤ 1 µM | 0.01 to 0.1 µM | 0.075 µg/mL (≈ 0.184 µM)
2 | N#Cc1ccc(C(COP(=O)(O)O)N2C(=O)N/C(=C\c3c[nH]c4cc(Cl)ccc34)C2=O)cc1 (stereo not shown) [Compound 40, (Z)-2-(4-((6-chloro-1H-indol-3-yl)methylene)-2,5-dioxoimidazolidin-1-yl)-2-(4-cyanophenyl)ethyl dihydrophosphate] | 0.01 to 0.1 µM |  | > 0.1 µM | 146 µg/mL (≈ 299 µM)
3 | O=C1N/C(=C\c2c[nH]c3c(F)c(Cl)ccc23)C(=O)N1C(CO)c1ccc(Cl)cc1F (stereo not shown) [Compound 99, (Z)-3-(1-(4-chloro-2-fluorophenyl)-2-hydroxyethyl)-5-((6-chloro-7-fluoro-1H-indol-3-yl)methylene)imidazolidine-2,4-dione] | 0.01 to 0.1 µM | ≤ 1 µM | 0.01 to 0.1 µM | 
4 | O=C1N/C(=C\c2c[nH]c3c(F)c(Cl)ccc23)C(=O)N1Cc1cc(F)c(Cl)cc1F [Compound 100, (Z)-3-(4-chloro-2,5-difluorobenzyl)-5-((6-chloro-7-fluoro-1H-indol-3-yl)methylene)imidazolidine-2,4-dione] | < 0.01 µM | ≤ 1 µM | 0.01 to 0.1 µM | 
5 | O=C1N/C(=C\c2c[nH]c3c(F)c(Cl)ccc23)C(=O)N1C(CO)c1cc(F)c(Cl)cc1F (stereo not shown) [Compound 101, (Z)-3-(1-(4-chloro-2,5-difluorophenyl)-2-hydroxyethyl)-5-((6-chloro-7-fluoro-1H-indol-3-yl)methylene)imidazolidine-2,4-dione] | 0.01 to 0.1 µM | 1 to 10 µM | > 0.1 µM | 
6 | O=C1N/C(=C\c2c[nH]c3c(F)c(Cl)ccc23)C(=O)N1Cc1c(F)cc(Cl)cc1F [Compound 102, (Z)-3-(4-chloro-2,6-difluorobenzyl)-5-((6-chloro-7-fluoro-1H-indol-3-yl)methylene)imidazolidine-2,4-dione] | 0.01 to 0.1 µM | ≤ 1 µM | 0.01 to 0.1 µM | 
7 | O=C1N/C(=C\c2c[nH]c3c(F)c(Cl)ccc23)C(=O)N1C(CO)c1c(F)cc(Cl)cc1F (stereo not shown) [Compound 103, (Z)-3-(1-(4-chloro-2,6-difluorophenyl)-2-hydroxyethyl)-5-((6-chloro-7-fluoro-1H-indol-3-yl)methylene)imidazolidine-2,4-dione] | < 0.01 µM | 1 to 10 µM | > 0.1 µM | 
8 | O=C1N/C(=C\c2c[nH]c3c(F)c(Cl)ccc23)C(=O)N1Cc1ccc(Cl)c(F)c1F [Compound 104, (Z)-3-(4-chloro-2,3-difluorobenzyl)-5-((6-chloro-7-fluoro-1H-indol-3-yl)methylene)imidazolidine-2,4-dione] | 0.01 to 0.1 µM | ≤ 1 µM | 0.01 to 0.1 µM | 
9 | O=C1N/C(=C\c2c[nH]c3c(F)c(Cl)ccc23)C(=O)N1C(CO)c1ccc(Cl)c(F)c1F (stereo not shown) [Compound 105, (Z)-3-(1-(4-chloro-2,3-difluorophenyl)-2-hydroxyethyl)-5-((6-chloro-7-fluoro-1H-indol-3-yl)methylene)imidazolidine-2,4-dione] | 0.01 to 0.1 µM | ≤ 1 µM | 0.01 to 0.1 µM | 
10 | O=C1N/C(=C\c2c[nH]c3c(F)c(Cl)ccc23)C(=O)N1Cc1cc(F)c(Cl)c(F)c1 [Compound 106, (Z)-3-(4-chloro-3,5-difluorobenzyl)-5-((6-chloro-7-fluoro-1H-indol-3-yl)methylene)imidazolidine-2,4-dione] | 0.01 to 0.1 µM | ≤ 1 µM | 0.01 to 0.1 µM | 
11 | O=C1N/C(=C\c2c[nH]c3c(F)c(Cl)ccc23)C(=O)N1C(CO)c1cc(F)c(Cl)c(F)c1 (stereo not shown) [Compound 107, (Z)-3-(1-(4-chloro-3,5-difluorophenyl)-2-hydroxyethyl)-5-((6-chloro-7-fluoro-1H-indol-3-yl)methylene)imidazolidine-2,4-dione] | 0.01 to 0.1 µM | ≤ 1 µM | 0.01 to 0.1 µM | 

— patent publication US20250223307A1, “MDM2/MDMX DOUBLE-TARGET INHIBITOR COMPOUND, PRODRUG, PHARMACEUTICAL COMPOSITION, AND PREPARATION METHOD THEREFOR AND USE THEREOF” (GLOBAL HEALTH DRUG DISCOVERY INSTITUTE, priority 2022, published 2025)
